# Assay results taken from ChEMBL document CHEMBL3638931, “Histone deacetylase inhibitors, process for preparation and uses thereof” (2014).
# Molecular target: T1, Protein deacetylase HDAC6 (Homo sapiens, UniProt Q9UBN7)
# T1 sequence (Q9UBN7 whole entry): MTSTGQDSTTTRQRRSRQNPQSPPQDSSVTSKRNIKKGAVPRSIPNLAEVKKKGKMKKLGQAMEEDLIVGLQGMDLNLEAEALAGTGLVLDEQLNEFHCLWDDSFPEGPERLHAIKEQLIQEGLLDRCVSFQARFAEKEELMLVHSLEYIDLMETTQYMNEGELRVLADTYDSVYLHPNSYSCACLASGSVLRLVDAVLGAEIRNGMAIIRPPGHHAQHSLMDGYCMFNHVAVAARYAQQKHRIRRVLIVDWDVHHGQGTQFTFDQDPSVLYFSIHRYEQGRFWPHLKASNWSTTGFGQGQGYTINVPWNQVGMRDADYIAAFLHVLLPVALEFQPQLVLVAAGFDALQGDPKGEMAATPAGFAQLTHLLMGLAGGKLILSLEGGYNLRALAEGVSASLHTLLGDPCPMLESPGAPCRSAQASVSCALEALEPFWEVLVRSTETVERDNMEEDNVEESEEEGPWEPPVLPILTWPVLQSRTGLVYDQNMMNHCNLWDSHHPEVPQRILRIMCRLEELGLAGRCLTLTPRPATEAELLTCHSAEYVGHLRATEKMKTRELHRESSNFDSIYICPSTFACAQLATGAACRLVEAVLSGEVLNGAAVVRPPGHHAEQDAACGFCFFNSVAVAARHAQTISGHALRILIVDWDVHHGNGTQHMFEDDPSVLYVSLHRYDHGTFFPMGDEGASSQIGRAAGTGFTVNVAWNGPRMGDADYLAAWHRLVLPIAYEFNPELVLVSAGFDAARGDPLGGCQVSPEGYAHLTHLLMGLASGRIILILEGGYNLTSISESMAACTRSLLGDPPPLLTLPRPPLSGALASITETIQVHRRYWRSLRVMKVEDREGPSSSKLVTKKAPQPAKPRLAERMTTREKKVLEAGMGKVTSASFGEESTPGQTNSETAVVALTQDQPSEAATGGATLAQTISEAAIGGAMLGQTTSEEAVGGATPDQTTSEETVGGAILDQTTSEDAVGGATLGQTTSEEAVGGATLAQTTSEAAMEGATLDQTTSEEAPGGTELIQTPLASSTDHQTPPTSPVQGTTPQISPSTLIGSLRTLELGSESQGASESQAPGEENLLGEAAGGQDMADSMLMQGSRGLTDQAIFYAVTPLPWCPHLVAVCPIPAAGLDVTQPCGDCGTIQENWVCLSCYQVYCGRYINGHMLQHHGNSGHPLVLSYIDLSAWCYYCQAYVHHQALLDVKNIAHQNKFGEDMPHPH
# Experiment: BIOMOL Fluorescent-Based HDAC Assay: The BIOMOL fluorescent-based HDAC activity assay has been applied in In vitro HDACi assay for determination of IC50 values of the compounds of this invention. The assay has been carried out in white 96 well formats according to the BIOMOL's method. In order to optimize the experiment conditions and optinal, the exact concentration range of the Deacetylated Standard (biomol, KI-142) that will vary depending on the flurimeter model, the gain setting and the exact excitation and emission wavelengths used. We recommend diluting some of the standard to a relatively low concentration with Assay Buffer (an appropriate series of Deacetylated Standard dilutions from 20 uM to 0.3125 uM), and Assay Buffer as a time zero to a set of wells on the microtiter plate. Experimental to samples (five dilute groups: 100 uM, 20 uM, 4 uM, 0.8 uM, 0.16 uM) should be compared to a time zero.
row,IC50 [nM],SMILES
1,247,CCN(CC)CCSc1ccc(/C=C/C(=O)NO)cc1NS(=O)(=O)c1ccc(C)cc1
2,313,CCN(CC)CCSc1ccc(/C=C/C(=O)NO)cc1NC(=O)C(Cl)Cl
